Experimental data from patent publication US20150374680A1, “POCHOXIME CONJUGATES USEFUL FOR THE TREATMENT OF HSP90 RELATED PATHOLOGIES” (UNIVERSITE DE STRASBOURG, priority 2010, published 2015).
One block for each molecule: values may come before it.

Columns and labels:
[1] = test system: A549; assay: Proliferation assay in A549; assay type: cell-based; settings: Homo sapiens, A549, Lung
Description: (§1) The compounds were dissolved in 100% DMSO to make 10 mM stock solutions. HER2+BT474 breast carcinoma cells were cultured in DMEM/F12 media, supplemented with 10% FBS. Log-phase growing BT474 cells were seeded in 96 well plates at 1.5×10E4 per well. At this cell density, BT474 is expected to reach confluency about 70-80% in 3 days. Different dilutions of compounds or vehicle in 200 μl (concentration range 0.004-10 μM) were added to the cells and incubated for 72 hours. Upon completion of the incubation, media were gently removed by suction and 100 μl of ATPlite solution (Perkin Elmer) was added in each well. Viable cells were measured by detecting luminescence generated from reaction of ATPlite solution and ATP in the cells using a 96-well microplate luminescence reader. Relative luminescence light unit is correlated to the amount of ATP in viable cells. The assays were performed in duplicates. IC50 was calculated using XLfit. The IC50 shown in Table 4 below is the average IC50 from three independent experiments.
(§2) Additional proliferation assays were performed for certain exemplified compounds using the methods similar to the one described above in multiple cancer cell lines.

[2] = test system: A498; assay: Proliferation assay in A498; assay type: cell-based; settings: Homo sapiens, A498, Renal (VHL mut)
Description: as §1, §2

[3] = test system: NCI-H2228; assay: Proliferation assay in NCI-H2228; assay type: cell-based; settings: Homo sapiens, NCI-H2228, Lung (EML4-ALK+)
Description: as §1, §2

[4] = test system: H23; assay: Proliferation assay in H23; assay type: cell-based; settings: Homo sapiens, NCI-H23, H23, Lung
Description: as §1, §2

[5] = test system: HCC1569; assay: Proliferation assay in HCC1569; assay type: cell-based; settings: Homo sapiens, HCC1569, Breast (Her2+; Her2i res)
Description: as §1, §2

[6] = test system: N87; assay: Proliferation assay in N87; assay type: cell-based; settings: N87, Gastric (Her2+)
Description: as §1, §2

[7] = test system: HER2+BT474 breast carcinoma cells; assay: Proliferation assay in BT474 (ATPlite); assay type: cell-based; settings: Homo sapiens, BT-474, 72 hours, average of three independent experiments
Description: as §1

[8] = test system: H1975; assay: Proliferation assay in H1975; assay type: cell-based; settings: Homo sapiens, NCI-H1975, H1975, Lung (EGFR mut)
Description: as §1, §2

[9] = test system: SKOV-3; assay: Proliferation assay in SKOV-3; assay type: cell-based; settings: Homo sapiens, SK-OV-3, SKOV-3, Ovarian (Her2+)
Description: as §1, §2

[10] = test system: H460; assay: Proliferation assay in H460; assay type: cell-based; settings: Homo sapiens, NCI-H460, H460, Lung
Description: as §1, §2

[11] = test system: RPM18226; assay: Proliferation assay in RPM18226; assay type: cell-based; settings: RPM18226, Multiple myeloma
Description: as §1, §2

[12] = test system: HCT116; assay: Proliferation assay in HCT116; assay type: cell-based; settings: Homo sapiens, HCT-116, HCT116, Colon
Description: as §1, §2

[13] = test system: HCC827; assay: Proliferation assay in HCC827; assay type: cell-based; settings: Homo sapiens, HCC827, Lung (EGFR mut)
Description: as §1, §2

[14] = test system: HT29; assay: Proliferation assay in HT29; assay type: cell-based; settings: Homo sapiens, HT-29, HT29, Colon
Description: as §1, §2

[15] = test system: PC3; assay: Proliferation assay in PC3; assay type: cell-based; settings: Homo sapiens, PC-3, PC3, Prostate
Description: as §1, §2

[16] = test system: Her-2 in SkBr3 cells; assay: Her-2 depletion in SkBr3 cells (pharmacodynamic marker of cellular efficacy); assay type: cell-based; settings: Homo sapiens, SK-BR-3; SkBr3 cells treated with the inhibitor overnight; read-out: PD (μM), pharmacodynamic EC50, Her-2 depletion
Description: FIG. 2. Cellular efficacy of pochoximes A1B5C1D1 (IC50). Depletion of Her-2 in SkBr3 cells were treated treated with the inhibitor for 18 h. […]

[17] = molecular target: T1, human HSP90α (Homo sapiens, UniProt P07900); assay: biochemical; assay type: binding
T1 construct: purchased Stressgen SPP-776F

[18] = test system: BT474 breast tumor cells; settings: xenografts bearing BT474 breast tumor cells; earlier work of the inventors; cited from earlier work
[19] = test system: HSP90 client protein in SKBR3 cell lines; settings: earlier work of the inventors; cited from earlier work

Molecule: C[C@@H]1C/C=C/[C@@H](O)C/C=C/C(=N/OCC(=O)N2CCCCC2)Cc2cc(O)cc(O)c2C(=O)O1 [As-10a(6-S)-E]
- IC50 [1]: 0.09 µM
- IC50 [2]: 0.099 µM
- IC50 [3]: 0.241 µM
- IC50 [4]: 0.088 µM
- IC50 [5]: 0.377 µM
- IC50 [6]: 0.073 µM
- IC50 [7]: 0.058 µM
- IC50 [8]: 0.073 µM
- IC50 [9]: 0.067 µM
- IC50 [10]: 0.045 µM

Molecule: C[C@@H]1C/C=C/[C@@H](O)C/C=C/C(=N\OCC(=O)N2CCCCC2)Cc2cc(O)cc(O)c2C(=O)O1 [As-10a(6-S)-Z]
- IC50 [1]: 0.022 µM
- IC50 [2]: 0.024 µM
- IC50 [3]: 0.077 µM
- IC50 [4]: 0.028 µM
- IC50 [5]: 0.1 µM
- IC50 [6]: 0.011 µM
- IC50 [7]: 0.026 µM
- IC50 [8]: 0.035 µM
- IC50 [9]: 0.025 µM
- IC50 [10]: 0.015 µM

Molecule: C[C@@H]1C/C=C/[C@@H](O)C/C=C/C(=N/OCC(=O)N2CCCCC2)Cc2c(Cl)c(O)cc(O)c2C(=O)O1 [As-10b(6-S)-E]
- IC50 [1]: 0.126 µM
- IC50 [2]: 0.037 µM
- IC50 [3]: 0.281 µM
- IC50 [4]: 0.036 µM
- IC50 [5]: 0.187 µM
- IC50 [6]: 0.013 µM
- IC50 [7]: 0.027 µM
- IC50 [8]: 0.033 µM
- IC50 [9]: 0.045 µM

Molecule: C[C@@H]1C/C=C/[C@@H](O)C/C=C/C(=N\OCC(=O)N2CCCCC2)Cc2c(Cl)c(O)cc(O)c2C(=O)O1 [As-10b(6-S)-Z]
- IC50 [7]: 0.824 µM

Molecule: C[C@@H]1C/C=C/[C@@H](N)C/C=C/C(=N/OCC(=O)N2CCCCC2)Cc2cc(O)cc(O)c2C(=O)O1 [As-13(6S)-E]
- IC50 [11]: 0.046 µM
- IC50 [12]: 0.076 µM
- IC50 [13]: 0.079 µM
- IC50 [2]: 0.18 µM
- IC50 [3]: 0.087 µM
- IC50 [14]: 0.033 µM
- IC50 [4]: 0.041 µM
- IC50 [5]: 0.14 µM
- IC50 [6]: 0.007 µM
- IC50 [8]: 0.037 µM
- IC50 [9]: 0.033 µM
- IC50 [10]: 0.033 µM
- IC50 [15]: 0.044 µM

Molecule: C[C@@H]1C/C=C/[C@@H](N)C/C=C/C(=N\OCC(=O)N2CCCCC2)Cc2cc(O)cc(O)c2C(=O)O1 [As-13(6S)-Z]
- IC50 [11]: 0.072 µM
- IC50 [12]: 0.101 µM
- IC50 [13]: 0.105 µM
- IC50 [2]: 0.166 µM
- IC50 [3]: 0.139 µM
- IC50 [14]: 0.092 µM
- IC50 [5]: 0.175 µM
- IC50 [6]: 0.012 µM
- IC50 [8]: 0.051 µM
- IC50 [15]: 0.082 µM

Molecule: C[C@@H]1C/C=C/[C@H](N)C/C=C/C(=NOCC(=O)N2CCCCC2)Cc2cc(O)cc(O)c2C(=O)O1 [Compound 13]
- IC50 [7]: 0.097 µM

Molecule: CC1=CC(=NOCC(=O)N2CCCCC2)Cc2cc(O)cc(O)c2C(=O)OCCC=CCC1 [Compound A1B3C4D1]
- EC50 [16]: ≤ 0.5 µM
- EC50 [17]: 0.046 µM

Molecule: CC1C=CCCOC(=O)c2c(O)cc(O)cc2CC(=NOCC(=O)N2CCCCC2)C=CC1 (centres unmarked) [Compound A1B4C4D1]
- EC50 [16]: ≤ 0.5 µM
- EC50 [17]: 0.021 µM

Molecule: CCCC1CC=CCCC=CC(=NOCC(=O)N2CCCCC2)Cc2c(Cl)c(O)cc(O)c2C(=O)O1 (centres unmarked) [Compound A2B1C2D1]
- EC50 [16]: ≤ 5 µM
- EC50 [17]: 0.096 µM

Molecule: O=C1NCCC=CCCC=CC(=NOCC(=O)N2CCCCC2)Cc2c(Cl)c(O)cc(O)c21 [Compound A2B1C3D1]
- EC50 [16]: ≤ 1 µM
- EC50 [17]: 0.198 µM

Molecule: C=CC1=CCCC=CC(=NOCC(=O)N2CCCCC2)Cc2c(Cl)c(O)cc(O)c2C(=O)OCC1 [Compound A2B1C8D1]
- EC50 [16]: ≤ 1 µM
- EC50 [17]: 0.432 µM

Molecule: CCCC1CC=CCCC(C)=CC(=NOCC(=O)N(CC)CC)Cc2c(Cl)c(O)cc(O)c2C(=O)O1 (centres unmarked) [Compound A2B3C2D18]
- EC50 [16]: > 10 µM
- EC50 [17]: 0.9 µM

Molecule: CC1C=CCC(C)OC(=O)c2c(O)cc(O)c(Cl)c2CC(=NOCC(=O)N2CCCCC2)C=CC1 (centres unmarked) [Compound A2B4C1D1]
- EC50 [16]: ≤ 1 µM
- EC50 [17]: 0.154 µM

Molecule: CCCC1CC=CC(C)CC=CC(=NOCC(=O)N2CCCCC2)Cc2c(Cl)c(O)cc(O)c2C(=O)O1 (centres unmarked) [Compound A2B4C2D1]
- EC50 [16]: ≤ 10 µM
- EC50 [17]: 1.75 µM

Molecule: CC1C=CCCOC(=O)c2c(O)cc(O)c(Cl)c2CC(=NOCC(=O)N2CCCCC2)C=CC1 (centres unmarked) [Compound A2B4C4D1]
- EC50 [16]: ≤ 5 µM
- EC50 [17]: 0.17 µM

Molecule: CC1C=CCCCOC(=O)c2c(O)cc(O)c(Cl)c2CC(=NOCC(=O)N2CCCCC2)C=CC1 (centres unmarked) [Compound A2B4C5D1]
- EC50 [16]: > 10 µM
- EC50 [17]: 1.72 µM

Molecule: O=C1OCC/C=C/CC/C=C/C(=N/OCC(=O)N2CCCCC2)Cc2c(Cl)c(O)cc(O)c21 [pochoxime A]
- Effect on tumor in xenografts [18]: tumor regression
- Concentration inducing client protein degradation [19]: low nM

Molecule: pochoxime B
- Concentration inducing client protein degradation [19]: low nM

Molecule: pochoxime C
- Concentration inducing client protein degradation [19]: low nM

Next, values leading:

- IC50 [7]: 7.84 µM
Molecule: C[C@@H]1C/C=C/[C@@H](NC(=O)CS[C@@H]2OC(CO)[C@@H](O)C(O)C2O)C/C=C/C(=N/OCC(=O)N2CCCCC2)Cc2cc(O)cc(O)c2C(=O)O1 (some centres unmarked) [Compound 5E]

- IC50 [7]: > 10 µM
Molecule: C[C@@H]1C/C=C/[C@@H](NC(=O)CS[C@@H]2OC(CO)[C@@H](O)C(O)C2O)C/C=C/C(=N\OCC(=O)N2CCCCC2)Cc2cc(O)cc(O)c2C(=O)O1 (some centres unmarked) [Compound 5Z]

- IC50 [7]: 4.76 µM
Molecule: C[C@@H]1C/C=C/[C@H](NC(=O)CS[C@@H]2OC(CO)[C@@H](O)C(O)C2O)C/C=C/C(=N/OCC(=O)N2CCCCC2)Cc2cc(O)cc(O)c2C(=O)O1 (some centres unmarked) [Compound 11E]

- IC50 [7]: > 10 µM
Molecule: C[C@@H]1C/C=C/[C@H](NC(=O)CS[C@@H]2OC(CO)[C@@H](O)C(O)C2O)C/C=C/C(=N\OCC(=O)N2CCCCC2)Cc2cc(O)cc(O)c2C(=O)O1 (some centres unmarked) [Compound 11Z]

- IC50 [7]: 0.03 µM
Molecule: C[C@@H]1C/C=C/[C@@H](N)C/C=C/C(=N/OCC(=O)N2CCCCC2)Cc2cc(O)cc(O)c2C(=O)O1 [Compound 12E]

- IC50 [7]: 0.038 µM
Molecule: C[C@@H]1C/C=C/[C@@H](N)C/C=C/C(=N\OCC(=O)N2CCCCC2)Cc2cc(O)cc(O)c2C(=O)O1 [Compound 12Z]

- IC50 [7]: 0.223 µM
Molecule: CC(=O)N[C@H]1/C=C/C[C@@H](C)OC(=O)c2c(O)cc(O)cc2CC(=N\OCC(=O)N2CCCCC2)/C=C/C1 [Compound 14E]

- IC50 [7]: 0.27 µM
Molecule: CC(=O)N[C@H]1/C=C/C[C@@H](C)OC(=O)c2c(O)cc(O)cc2CC(=N/OCC(=O)N2CCCCC2)/C=C/C1 [Compound 14Z]
